Reference: patent publication US5244923A, “Use of 2-(phenoxypropanolamino) ethoxphenoxy-acetic acid and its derivatives to inhibit gastrointestinal motility” (Imperial Chemical Industries PLC, priority 1990, dated 1993)
Structures can show the parent of a compound that is named as a salt.

Biological target: "atypical" β-adrenoceptors (Cavia porcellus, UniProt Q3HNP5)
Assay: Relaxation of histamine-contracted guinea-pig ileum
Conditions: histamine 0.5 μM contraction, propranolol 5 μM, atropine 1 μM, phentolamine 3 μM present, read-out: EC30 (concentration of agonist producing a relaxation equivalent to 30% histamine inhibition)

Sequence of "atypical" β-adrenoceptors (Q3HNP5 1-379): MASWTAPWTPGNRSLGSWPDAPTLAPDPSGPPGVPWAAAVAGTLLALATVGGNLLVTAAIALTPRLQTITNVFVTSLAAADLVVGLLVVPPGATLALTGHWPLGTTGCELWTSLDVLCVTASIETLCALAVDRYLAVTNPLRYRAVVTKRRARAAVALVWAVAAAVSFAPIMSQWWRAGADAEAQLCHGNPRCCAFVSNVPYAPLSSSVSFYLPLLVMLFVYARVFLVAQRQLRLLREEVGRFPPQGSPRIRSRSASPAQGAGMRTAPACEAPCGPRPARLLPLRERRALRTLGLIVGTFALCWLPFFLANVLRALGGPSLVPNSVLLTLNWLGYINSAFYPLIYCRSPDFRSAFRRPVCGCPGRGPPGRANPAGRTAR

COCCNC(=O)COc1ccc(OCCNC[C@H](O)COc2ccccc2)cc1 [(S)-4-[2-(2-hydroxy-3-phenoxypropylamino)ethoxy]-N-(2-methoxyethyl)phenoxyacetamide hydrochloride]
EC30: 940 ± 260 nM
